Reference: paper PMC8580996, “2-Oxoglutarate derivatives can selectively enhance or inhibit the activity of human oxygenases” (Nature Communications, 2021)
Several values for one entry are separate records, joined by “and”; a condition that tells them apart may be missing. Equal values may be shown once. Read-outs that look alike come from different tables or passages of the source.

How the values were obtained:
FIH [1] = biological target: T1, FIH (Homo sapiens, UniProt Q9NWT6); test: SPE-MS FIH turnover (cosubstrate) assay in the absence of 2OG; format: biochemical; conditions: 330 μM 2OG or 2OG derivative, no 2OG, t = 15 min
T1 sequence (Q9NWT6 whole entry): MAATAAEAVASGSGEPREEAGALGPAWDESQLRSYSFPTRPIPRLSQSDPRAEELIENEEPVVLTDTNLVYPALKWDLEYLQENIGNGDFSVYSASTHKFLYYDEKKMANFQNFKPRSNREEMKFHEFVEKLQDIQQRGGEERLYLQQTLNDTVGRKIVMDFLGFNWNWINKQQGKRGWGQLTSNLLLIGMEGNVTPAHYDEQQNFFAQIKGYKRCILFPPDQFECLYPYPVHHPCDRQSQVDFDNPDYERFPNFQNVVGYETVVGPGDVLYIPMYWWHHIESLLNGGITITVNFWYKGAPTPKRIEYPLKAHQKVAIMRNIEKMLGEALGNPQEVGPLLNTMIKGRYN
Experimental: The ability of 35 synthetic C3/C4-substituted 2OG derivatives, which were prepared via a reported procedure (Supplementary Fig. 1 and Supplementary Methods)[21], to sustain catalysis by purified recombinant FIH in the absence of 2OG was examined using an assay directly monitoring substrate depletion and product formation (i.e., a +16 Da mass shift) by solid-phase extraction (SPE) coupled to mass spectrometry (SPE-MS)[44],[45]. […] (i.e. CA1–20)[47], were used as FIH substrates to test for potential substrate-dependent differences in terms of cosubstrate analog selectivity.
Assay samples were aspirated under vacuum for 0.6 s and loaded onto a C4 SPE cartridge. After loading, the C4 SPE cartridge was washed with 0.1%v/v aqueous formic acid to remove non-volatile buffer salts (5.5 s, 1.5 mL/min). […] The mass spectrometer was operated using the MassHunter Workstation B.08.00 software (Agilent), the mass spectrometer parameters were: capillary voltage (4000 V), nozzle voltage (1000 V), fragmentor voltage (365 V), gas temperature (280 °C), gas flow (13 L/min), sheath gas temperature (350 °C), sheath gas flow (12 L/min). […] Data were exported into Microsoft Excel and used to calculate the % conversion of the hydroxylation reaction using the equation: % conversion = 100 × (integral product peptide)/(integral substrate peptide+integral product peptide). […] Z′-factors were calculated according to the cited literature using Microsoft Excel (Supplementary Fig. 26)[83].

FIH [2] = biological target: T1, FIH; test: SPE-MS FIH inhibition assay; format: biochemical; for IC50 FIH: 0.15 µM FIH
Experimental: FIH inhibition assays were performed as described, using cosubstrate/cofactor stock solutions (L-ascorbic acid, LAA: 50 mM in MQ-grade water; 2-oxoglutarate, 2OG: 10 mM in MQ-grade water; ammonium iron(II) sulfate hexahydrate, FAS, (NH4)2Fe(SO4)2·6H2O: 400 mM in 20 mM HCl diluted to 1 mM in MQ-grade water), which were freshly prepared from commercially-sourced solids (Sigma Aldrich).
Dimethyl sulfoxide (DMSO) solutions of the 2OG derivatives were dry dispensed across 384-well polypropylene assay plates (Greiner) in an approximately threefold and 11-point dilution series (100 μM top concentration; the final DMSO assay concentration was kept constant at 0.5%v/v) using an ECHO 550 acoustic dispenser (Labcyte). […] Each reaction was performed in technical duplicates in adjacent wells of the assay plates; additionally, assays were performed in two independent duplicates on different days using different inhibitor solutions.
The Enzyme Mixture (25 μL/well), containing 0.3 μM His6-FIH in buffer (50 mM Tris, 50 mM NaCl, pH 7.5), was dispensed across the inhibitor-containing 384-well assay plates with a multidrop dispenser (ThermoFischer Scientific) at 20 °C under an ambient atmosphere. The plates were subsequently centrifuged (1000 rpm, 15 s) and incubated for 15 min at 20 °C. The Substrate Mixture (25 μL/well), containing 10.0 μM HIF-1α788–822[37] substrate, 200 μM LAA, 20.0 μM 2OG, and 20.0 μM FAS in buffer (50 mM Tris, 50 mM NaCl, pH 7.5), was added using the multidrop dispenser. The plates were centrifuged (1000 rpm, 15 s) and after incubating for 15 min, the enzyme reaction was stopped by the addition of 10%v/v aqueous formic acid (5 μL/well). The plates were then centrifuged (1000 rpm, 30 s) and analyzed by MS.
MS-analyses were performed using a RapidFire RF 365 high-throughput sampling robot (Agilent) attached to an iFunnel Agilent 6550 accurate-mass quadrupole time-of-flight mass spectrometer operated in the positive ionization mode. Assay samples were aspirated under vacuum for 0.6 s and loaded onto a C4 SPE cartridge. After loading, the C4 SPE cartridge was washed with 0.1%v/v aqueous formic acid to remove non-volatile buffer salts (5.5 s, 1.5 mL/min). […] The mass spectrometer was operated using the MassHunter Workstation B.08.00 software (Agilent), the mass spectrometer parameters were: capillary voltage (4000 V), nozzle voltage (1000 V), fragmentor voltage (365 V), gas temperature (280 °C), gas flow (13 L/min), sheath gas temperature (350 °C), sheath gas flow (12 L/min). The m/z + 2 (for CA1–20) or +3 (for HIF-1α788–822) charge states of the peptide (substrate) and the hydroxylated peptide (product) were used to extract ion chromatogram data, peak areas were integrated using RapidFire Integrator 4.3.0 (Agilent). Data were exported into Microsoft Excel and used to calculate the % conversion of the hydroxylation reaction using the equation: % conversion = 100 × (integral product peptide)/(integral substrate peptide+integral product peptide). […] Z′-factors were calculated according to the cited literature using Microsoft Excel (Supplementary Fig. 26)[83].
SPE-MS FIH inhibition assays were performed as described in the Methods section.
Tris, 50 mM NaCl, pH 7.5, 20 °C). […]

AspH [3] = biological target: T2, AspH (Homo sapiens, UniProt Q12797); design: method as in PMID 34163896; conditions: hFX-CP101–119 substrate, 330 μM 2OG or 2OG derivative, t = 15 min; cited from earlier work
T2 construct: the tetratricopeptide repeat domain (His6-AspH315-758), was produced and purified as previously reported; made in house
T2 sequence (Q12797 315-758): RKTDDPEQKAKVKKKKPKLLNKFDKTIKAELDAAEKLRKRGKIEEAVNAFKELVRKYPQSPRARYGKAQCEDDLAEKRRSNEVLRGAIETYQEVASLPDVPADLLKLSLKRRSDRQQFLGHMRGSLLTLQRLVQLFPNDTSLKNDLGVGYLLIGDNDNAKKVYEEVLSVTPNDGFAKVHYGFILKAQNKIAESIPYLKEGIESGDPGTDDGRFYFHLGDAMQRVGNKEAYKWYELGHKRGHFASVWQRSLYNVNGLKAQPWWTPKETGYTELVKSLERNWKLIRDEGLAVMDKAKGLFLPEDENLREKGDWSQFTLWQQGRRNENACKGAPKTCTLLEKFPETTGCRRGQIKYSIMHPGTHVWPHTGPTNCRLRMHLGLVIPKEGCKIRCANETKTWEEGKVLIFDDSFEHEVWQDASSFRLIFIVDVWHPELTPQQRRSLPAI

AspH [4] = biological target: T2, AspH; conditions: cited from earlier work
[5] = […] FIH, 5.0 μM HIF-1α788-822, 10 μM 2OG, mean of two runs
[6] = source data of Table 3, single independent replicates, read-out: FIH IC50, independent replicate
[7] = 0.05 μM AspH, 1.0 μM hFX-CP101-119, 3.0 μM 2OG, ref 21 (supplementary ref 1)
[8] = […] FIH, 5.0 μM HIF-1α788-822, 10 μM 2OG, mean of two runs, read-out: IC50 FIH

Row | Structure (SMILES) | FIH activity, %-substrate conversion (FIH [1]; CA1–20 substrate) | FIH activity, %-substrate conversion (FIH [1]; HIF-1α788–822 substrate) | IC50 FIH (FIH [2]; [5]) | IC50 (FIH [2]; [6]) | IC50 (FIH [2]; [8]) | FIH IC50, independent replicate (FIH [2]; source data of Table 3, single independent replicates) | AspH activity, %-substrate conversion (AspH [3]) | IC50 (AspH [4]; NOFD control, supplementary ref 13) | IC50 (AspH [4]; [7])
1 | O=C(O)C(=O)[C@@H]1[C@@H](C(=O)O)[C@@H]2C=C[C@H]1C2 (racemic) [compound 24] | ^c<1% ^d<1% | ^c<1% ^d<1% | inactive |  |  |  | <1% |  | 
2 | O=C(O)C(=O)N[C@H](Cc1ccccc1)C(=O)O [NOFD, N-oxalyl-D-phenylalanine, reference compound] |  |  |  |  |  |  |  | 15.5 µM | 
3 | O=C(O)CC(Cc1ccc(F)cc1)C(=O)C(=O)O (centres unmarked) [compound 7] | ^c<1% ^d<1% | ^c<1% ^d<1% |  |  | 7.5 µM |  | <1% |  | 
4 | O=C(O)CC(Cc1ccc(OC(F)(F)F)cc1)C(=O)C(=O)O (centres unmarked) [compound 8] | ^c<1% ^d<1% | ^c<1% ^d<1% |  |  | 12.7 µM |  | <1% |  | 
5 | COc1ccc(CC(CC(=O)O)C(=O)C(=O)O)cc1 (centres unmarked) [compound 9] | ^c<1% ^d<1% | ^c<1% ^d<1% |  |  | 3.6 µM |  | <1% |  | 
6 | O=C(O)C(=O)CC(Cc1ccccc1)C(=O)O (centres unmarked) [compound 19, 4-benzyl-2OG] | ^c<1% ^d<1% | ^c<1% ^d<1% |  | 3.42 µM and 3.64 µM |  |  | <1% |  | 
7 | O=C(O)C(=O)CC(Cc1ccc2ccccc2c1)C(=O)O (centres unmarked) [compound 20] | ^c<1% ^d<1% | ^c<1% ^d<1% |  |  | 2.5 µM |  | <1% |  | 
8 | CC1(C)C(C(=O)O)C1C(=O)C(=O)O (centres unmarked) [compound 21] | ^c<1% ^d<1% | ^c<1% ^d<1% |  |  | 19.4 µM |  | <1% |  | 
9 | O=C(O)C(=O)C1(C(=O)O)CC1 [compound 23] | ^c<1% ^d<1% | ^c<1% ^d<1% | inactive |  |  |  | <1% |  | 
10 | O=C(O)C(=O)c1ccc(C(=O)O)s1 [compound 35] | ^c<1% ^d<1% | ^c<1% ^d<1% | inactive |  |  | not inhibiting | ~15% |  | 

Now from value to compound, other results behind:

Row | FIH activity, %-substrate conversion (FIH [1]; CA1–20 substrate) | FIH activity, %-substrate conversion (FIH [1]; HIF-1α788–822 substrate) | IC50 FIH (FIH [2]; [5]) | IC50 (FIH [2]; [6]) | IC50 (FIH [2]; [8]) | FIH IC50, independent replicate (FIH [2]; source data of Table 3, single independent replicates) | Structure (SMILES) | AspH activity, %-substrate conversion (AspH [3]) | IC50 (AspH [4]; NOFD control, supplementary ref 13) | IC50 (AspH [4]; [7])
11 | ~20% | ~2% |  | 4.54 µM and 4.52 µM |  |  | CCC(CC(=O)O)C(=O)C(=O)O (centres unmarked) [compound 2, 3-ethyl 2OG] | <1% |  | ~1.2 µM
12 | ~10% | < 1% |  | 2.64 µM and 2.68 µM |  |  | CCCC(CC(=O)O)C(=O)C(=O)O (centres unmarked) [compound 3, 3-propyl-2OG] | <1% |  | ~5.7 µM
13 | ^c<1% ^d<1% | ^c<1% ^d<1% |  |  | 31 µM |  | CC(C)(C)CCC(CC(=O)O)C(=O)C(=O)O (centres unmarked) [compound 4] | <1% |  | 
14 | ^c<1% ^d<1% | ^c<1% ^d<1% |  |  | 5.7 µM |  | O=C(O)CC(CCCc1ccccc1)C(=O)C(=O)O (centres unmarked) [compound 5] | <1% |  | 
15 | ^c<1% ^d<1% | ^c<1% ^d<1% |  | 5.76 µM and 7.01 µM | 6.4 µM |  | O=C(O)CC(Cc1ccccc1)C(=O)C(=O)O (centres unmarked) [compound 6] | <1% |  | 
16 | ^c<1% ^d<1% | ^c<1% ^d<1% | inactive |  |  |  | Cc1cc(C)cc(CC(CC(=O)O)C(=O)C(=O)O)c1 (centres unmarked) [compound 10] | <1% |  | 
17 | ~70% | ~5% |  | 15.2 µM and 14.3 µM | 14.8 µM |  | CCCC(CC(=O)C(=O)O)C(=O)O (centres unmarked) [compound 15, 4-propyl-2OG] | <1% |  | 
18 | ^c<1% ^d<1% | ^c<1% ^d<1% |  |  | 38.9 µM |  | CC(C)(C)CCC(CC(=O)C(=O)O)C(=O)O (centres unmarked) [compound 17] | <1% |  | 
